Measured values as given in US20120053168A1, “FUSED BENZOAZEPINES AS NEURONAL NICOTINIC ACETYLCHOLINE RECEPTOR LIGANDS” (Targacept, Inc., priority 2009, published 2012).

Key:
[1] = target: T1, human muscle nAChR subtype (Homo sapiens, UniProt P02708+P07510+Q07001); experiment: 86Rb+ efflux in TE671/RD cells (human muscle nAChR subtype); assay type: cell-based
T1 construct: endogenous in cells; host or cells: TE671/RD human rhabdomyosarcoma cells
Text: Example 7: Interaction at the Human Muscle nAChR Subtype
Activation of muscle-type nAChRs was established on the human clonal line TE671/RD, which is derived from an embryonal rhabdomyosarcoma (Stratton et al., Carcinogen 10: 899 (1989)). These cells express receptors that have pharmacological (Lukas, J. Pharmacol. Exp. Ther. 251: 175 (1989)), electrophysiological (Oswald et al., Neurosci. Lett. 96: 207 (1989)), and molecular biological profiles (Luther et al., J. Neurosci. 9: 1082 (1989)) similar to the muscle-type nAChR.
TE671/RD cells were maintained in proliferative growth phase according to routine protocols (Bencherif et al., Mol. Cell. Neurosci. 2: 52 (1991) and Bencherif et al., J. Pharmacol. Exp. Ther. 257: 946 (1991)). […]
Nicotinic acetylcholine receptor (nAChR) function was assayed using ^86Rb^+efflux according to the method described by Lukas et al., Anal. Biochem. 175: 212 (1988). […] Scintillation fluid was added and released radioactivity was measured by liquid scintillation counting. […]
When appropriate, dose-response curves of test compound were determined. The maximal activation for individual compounds (Emax) was determined as a percentage of the maximal activation induced by L-nicotine. The compound concentration resulting in half maximal activation (EC50) of specific ion flux was also determined.

Human α4β2 nAChR subtype = target: T2, Human α4β2 nAChR subtype (Homo sapiens, UniProt P17787+P43681); experiment: [3H]nicotine radioligand binding, membranes from SH-EP1/human α4β2 clonal cells
T2 construct: expressed in transfected cells; host or cells: SH-EP1 clonal cells
Experimental: Preparation of membranes from SH-EP1/human α4β2 clonal cells:
Cell pellets from 40 150 mm culture dishes were pooled, and homogenized by Polytron (Kinematica GmbH, Switzerland) in 20 milliliters of ice-cold preparative buffer. The homogenate was centrifuged at 48,000 g for 20 minutes at 4° C. The resulting pellet was re-suspended in 20 mL of ice-cold preparative buffer and stored at ˜20° C.
On the day of the assay, the frozen membranes were thawed and spun at 48,000×g for 20 min. The supernatant was decanted and discarded. The pellet was resuspended in Dulbecco's phosphate buffered saline (PBS, Life Technologies) pH 7.4 and homogenized with the Polytron for 6 seconds. Protein concentrations were determined using a Pierce BCA Protein Assay Kit, with bovine serum albumin as the standard (Pierce Chemical Company, Rockford, Ill.).
Assay: Membrane preparations (approximately 50 μg for human and 200-300 μg protein for rat α4β2) were incubated in PBS (50 μL and 100 μL respectively) in the presence of competitor compound (0.01 nM to 100 μM) and 5 nM [^3H]nicotine for 2-3 hours on ice. Incubation was terminated by rapid filtration on a multi-manifold tissue harvester (Brandel, Gaithersburg, Md.) using GF/B filters presoaked in 0.33% polyethyleneimine (w/v) to reduce non-specific binding. Tissue was rinsed 3 times in PBS, pH 7.4. Scintillation fluid was added to filters containing the washed tissue and allowed to equilibrate. Filters were then counted to determine radioactivity bound to the membranes by liquid scintillation counting (2200CA Tri-Carb LSC, Packard Instruments, 50% efficiency or Wallac Trilux 1450 MicroBeta, 40% efficiency, Perkin Elmer).
Data were expressed as disintegrations per minute (DPMs). Within each assay, each point had 2-3 replicates. The replicates for each point were averaged and plotted against the log of the drug concentration. IC50, which is the concentration of the compound that produces 50% inhibition of binding, was determined by least squares non-linear regression. Ki values were calculated using the Cheng-Prussof equation (1973): […]
where N is the concentration of [^3H]nicotine and Kd is the affinity of nicotine (3 nM, determined in a separate experiment).

T1 sequence (P02708 21-457): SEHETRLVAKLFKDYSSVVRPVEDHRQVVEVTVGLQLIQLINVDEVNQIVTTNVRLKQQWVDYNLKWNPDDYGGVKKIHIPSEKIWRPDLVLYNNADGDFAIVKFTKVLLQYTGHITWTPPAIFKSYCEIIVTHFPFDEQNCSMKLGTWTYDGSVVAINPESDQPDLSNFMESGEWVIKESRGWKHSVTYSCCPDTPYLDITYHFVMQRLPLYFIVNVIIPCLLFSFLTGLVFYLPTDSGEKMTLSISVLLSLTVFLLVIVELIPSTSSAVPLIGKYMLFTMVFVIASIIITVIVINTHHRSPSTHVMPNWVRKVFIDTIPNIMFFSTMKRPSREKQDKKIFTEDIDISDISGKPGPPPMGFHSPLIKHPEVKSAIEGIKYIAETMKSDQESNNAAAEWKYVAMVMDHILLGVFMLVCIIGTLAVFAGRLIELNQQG
T1 sequence (P07510 23-517): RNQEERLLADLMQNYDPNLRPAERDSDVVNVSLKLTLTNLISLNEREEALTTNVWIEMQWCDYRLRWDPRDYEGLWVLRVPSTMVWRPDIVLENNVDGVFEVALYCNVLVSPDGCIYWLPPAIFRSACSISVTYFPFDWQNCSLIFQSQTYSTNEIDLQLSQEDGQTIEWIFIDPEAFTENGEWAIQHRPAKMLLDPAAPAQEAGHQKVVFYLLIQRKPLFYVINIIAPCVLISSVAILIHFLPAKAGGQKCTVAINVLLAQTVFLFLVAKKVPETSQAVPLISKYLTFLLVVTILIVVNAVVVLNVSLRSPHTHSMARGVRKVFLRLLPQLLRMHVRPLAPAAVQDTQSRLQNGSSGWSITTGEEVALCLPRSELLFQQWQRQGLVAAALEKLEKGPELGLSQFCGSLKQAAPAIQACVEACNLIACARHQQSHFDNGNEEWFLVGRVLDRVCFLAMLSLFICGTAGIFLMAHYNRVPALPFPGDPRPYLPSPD
T1 sequence (Q07001 22-517): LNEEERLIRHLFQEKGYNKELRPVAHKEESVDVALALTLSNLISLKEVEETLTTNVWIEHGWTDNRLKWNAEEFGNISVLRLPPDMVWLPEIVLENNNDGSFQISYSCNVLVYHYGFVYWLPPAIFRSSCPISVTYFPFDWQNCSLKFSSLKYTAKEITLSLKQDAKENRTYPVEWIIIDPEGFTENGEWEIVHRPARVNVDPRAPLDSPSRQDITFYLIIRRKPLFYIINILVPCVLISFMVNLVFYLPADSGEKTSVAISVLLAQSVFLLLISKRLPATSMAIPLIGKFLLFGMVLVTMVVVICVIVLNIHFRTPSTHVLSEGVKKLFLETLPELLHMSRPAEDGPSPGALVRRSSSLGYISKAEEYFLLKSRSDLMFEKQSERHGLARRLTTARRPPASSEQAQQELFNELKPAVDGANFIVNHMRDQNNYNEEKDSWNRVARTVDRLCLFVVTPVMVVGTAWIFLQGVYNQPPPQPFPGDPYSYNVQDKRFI
T1 sequence (P11230 24-501 partner): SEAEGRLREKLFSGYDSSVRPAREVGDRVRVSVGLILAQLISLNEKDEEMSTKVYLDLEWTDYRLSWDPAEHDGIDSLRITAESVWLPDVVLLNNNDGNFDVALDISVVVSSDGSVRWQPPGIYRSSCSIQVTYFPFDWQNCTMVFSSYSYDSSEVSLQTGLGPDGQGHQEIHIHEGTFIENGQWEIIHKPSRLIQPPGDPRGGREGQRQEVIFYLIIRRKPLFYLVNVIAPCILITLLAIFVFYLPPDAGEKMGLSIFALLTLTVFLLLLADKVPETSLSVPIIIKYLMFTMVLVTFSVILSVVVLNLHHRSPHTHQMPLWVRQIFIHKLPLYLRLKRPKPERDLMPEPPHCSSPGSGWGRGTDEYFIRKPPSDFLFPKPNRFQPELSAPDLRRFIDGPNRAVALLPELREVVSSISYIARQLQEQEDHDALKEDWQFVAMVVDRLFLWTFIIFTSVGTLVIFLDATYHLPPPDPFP
T2 sequence (P43681 29-627 limits assumed): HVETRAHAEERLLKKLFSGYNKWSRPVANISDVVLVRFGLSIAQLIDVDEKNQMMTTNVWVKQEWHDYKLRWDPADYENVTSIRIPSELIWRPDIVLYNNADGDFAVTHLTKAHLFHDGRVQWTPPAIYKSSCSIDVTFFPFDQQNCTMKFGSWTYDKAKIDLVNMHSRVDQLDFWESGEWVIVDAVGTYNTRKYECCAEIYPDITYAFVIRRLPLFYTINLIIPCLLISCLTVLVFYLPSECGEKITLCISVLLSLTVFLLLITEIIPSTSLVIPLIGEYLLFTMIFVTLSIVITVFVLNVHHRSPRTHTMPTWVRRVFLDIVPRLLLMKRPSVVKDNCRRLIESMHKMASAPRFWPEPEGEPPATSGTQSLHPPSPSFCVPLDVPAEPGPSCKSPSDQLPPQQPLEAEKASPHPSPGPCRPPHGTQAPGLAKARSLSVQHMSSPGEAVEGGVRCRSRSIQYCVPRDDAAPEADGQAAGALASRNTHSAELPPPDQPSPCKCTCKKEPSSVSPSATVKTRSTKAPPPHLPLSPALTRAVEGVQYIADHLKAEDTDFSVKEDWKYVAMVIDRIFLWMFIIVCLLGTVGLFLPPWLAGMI
T2 sequence (P17787 26-502): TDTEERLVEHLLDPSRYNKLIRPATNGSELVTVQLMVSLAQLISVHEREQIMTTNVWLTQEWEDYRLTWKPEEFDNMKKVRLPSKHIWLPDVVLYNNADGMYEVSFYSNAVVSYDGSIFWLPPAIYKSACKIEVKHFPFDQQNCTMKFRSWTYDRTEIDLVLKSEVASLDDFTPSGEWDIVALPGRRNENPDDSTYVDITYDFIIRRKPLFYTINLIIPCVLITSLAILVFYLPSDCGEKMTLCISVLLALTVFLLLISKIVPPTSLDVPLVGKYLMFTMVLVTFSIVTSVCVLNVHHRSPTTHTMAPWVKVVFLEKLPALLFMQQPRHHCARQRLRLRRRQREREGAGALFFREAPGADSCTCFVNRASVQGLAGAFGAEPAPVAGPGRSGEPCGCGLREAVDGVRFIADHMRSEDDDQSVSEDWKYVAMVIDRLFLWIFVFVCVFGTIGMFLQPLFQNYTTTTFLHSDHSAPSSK

c1cnc2cc3c(cc2n1)CCNCC3 [Compound A, 7,8,9,10-tetrahydro-6H-azepino[4,5-g]quinoxaline]
EC50 ([1]; 86Rb+ efflux): 75 µM | Emax ([1]; percentage of maximal activation induced by L-nicotine): 23% | Ki (Human α4β2 nAChR subtype): 0.01 µM
